Row | melting point [°C] | Structure (SMILES)
1 | > 260 | O=C1c2ccccc2C(=O)c2sc(-c3ccco3)nc21
2 | 116 to 117 | C#CCN(C)c1nccc(Oc2ccc(NC(=O)c3cc(F)cc(N4CCCCC4)c3)c3ccccc23)n1
3 | 143 to 145 | COCCOc1ccc2c(Cl)c(C#N)cnc2c1
4 | 116 to 118 | O=C(O)CCc1cnoc1-c1ccc(OC(F)(F)F)cc1
5 | 111 to 112 | CC(=O)CCc1nc2ccc3c(c2o1)C(CCNC(C)=O)CC3 (configuration not stated)
6 | 118 to 120 | COC(=O)c1ccc(N)cc1O
7 | 125 to 126 | CCCc1c(C(=O)C(C)C)c2ccc(C(N)=O)cc2n1C(=O)c1ccccc1Cl
8 | 94 to 95 | Cc1ccc(O[C@@H](Cc2ccc(O)cc2)C(=O)OCC[Si](C)(C)C)cc1
9 | 183 | CCCC(C)NC(=O)c1ccc(C(=O)Nc2ccccc2NC(=O)OC(C)(C)C)s1 (configuration not stated)
10 | 185 to 187 | Cc1ccc(Cl)c(Nc2ccccc2C(N)=O)c1Cl
11 | 128 to 129 | CCCCc1c(/C=C/C(=O)NCCCCCCc2cncnc2)cc(OC)c2ccccc12
12 | 68 to 70 | N#Cc1nccnc1Oc1cccc(C(F)(F)F)c1
13 | 88 to 90 | CC(C)(C)n1nnc(-c2ccc(CCC(=O)O)cc2)n1
14 | 114 to 116 | COc1cc(C(=O)C(=O)O)cc(OC)c1OCCOc1ccc2ccccc2c1
15 | 85 to 87.5 | CC(C(=O)C=CC1C(OC(=O)c2ccccc2)CC2OC(=O)CC21)C1C=CCC1 (mixture of isomers)
16 | 112 to 113 | O=C1CCn2c(CCc3ccccc3)nc3cccc1c32
17 | 110 to 113 | CN(C)Cc1nc(C(=O)O)nn1-c1ccc(Cl)cc1C(=O)c1ccccc1Cl
18 | 165 to 166 | OCC1OC(n2ncc3c(SCC=Cc4ccccc4)ncnc32)C(O)C1O (configuration not stated)
19 | 141 to 142 | O=C(O)COc1cccc2cc(COCC(c3ccccc3)c3ccccc3)oc12

Row | melting point [°C] | Structure (SMILES)
20 | 184 to 185 | CC(=O)Nc1ccc(C(O)CO)cn1 (configuration not stated)
21 | 126 to 127 | CCN(CC)CCCCC1CCN(C(=O)N2c3ccccc3C(=O)Nc3cccnc32)CC1
22 | 145 to 146 | O=c1ccn(-c2ccccc2C(F)(F)F)nc1-c1ccnn1-c1ccccc1
23 | 205 to 207 | COc1ccccc1-c1ccc2cnc(Nc3ccc(=O)[nH]c3)nn12
24 | 350 to 352 | O=C(O)c1ccc2c(c1)CCc1ccc(C(=O)O)cc1S2(=O)=O
25 | 120 to 121 | CS(=O)(=O)c1ccc(Oc2ccc(Cl)c(Cl)c2)nc1
26 | 240 to 241 | CCCCc1nc2c(N)nc3cc(-c4cccnc4)ccc3c2n1CCNC(=O)NC(C)C
27 | 177 to 178 | O=C(O)Cc1c(C(=O)c2cccs2)[nH]c2cc(Cl)ccc12
28 | 284 to 285 | O=c1c(-c2nnn[nH]2)coc2ccccc12
29 | 59 to 62 | CCCCCCCCCCCCCCCCCCOc1cc(NC(=O)OCc2ccccc2)cc(OCCCCC(=O)OC)c1
30 | 90 to 92 | CC(=O)NC(COc1ccccc1)C(=O)O (configuration not stated)
31 | 127 to 129 | Cc1cc(C)nc(NC2CCC(CCN3CCN(c4ccccc4)CC3)CC2)n1 (configuration not stated)
32 | 83 to 84 | CC(=O)OCc1cccc2sc(-c3ccccc3)nc12
33 | 175 to 177 | CCOC(=O)c1c(-c2ccccc2)c2ccc(OC)cc2[nH]c1=O
34 | 137 to 138 | Cc1cc(N(C)Cc2ccc(-c3ccc(C(F)(F)F)cc3)nc2C)cc(C)c1OCC(=O)O
35 | 86 to 88 | CC1(C)OC(=O)N2CCN(C(=O)OCc3ccccc3)CC21 (configuration not stated)
36 | 139 to 140 | CC(=O)NC[C@H]1CN(c2ccc3c(c2)CSCC3)C(=O)O1
37 | 153 to 154 | CCOP(=O)(Cc1ccc(NC(=O)c2cc(=O)c3ccccc3o2)cc1)OCC
38 | 75 to 79 | O=C(O)[C@@H]1CCc2ccccc2N1C(=O)OCc1ccccc1

Row | melting point [°C] | Structure (SMILES)
39 | 216 to 218 | CCNc1cccc2c(S(=O)(=O)Nc3ncc(Br)nc3OC)cccc12
40 | 267 to 268 | O=S1c2ccccc2Oc2ccc(-c3nnn[nH]3)cc21 (configuration not stated)
41 | 128 to 130 | O=C1CCOc2cc(OCCn3ccnc3)ccc21
42 | 180 to 182 | COc1cc2c(cc1SCC(=O)O)oc1ccccc12
43 | 162 to 163 | Cc1c(Cc2cccc(C(F)(F)F)c2)oc2c(-c3cccc(C(=O)NCCS(C)(=O)=O)c3)cccc12
44 | 151 to 154 | CCCSc1ncc(CC(NC(=O)CC(C)C)C(=O)O)n1Cc1ccccc1Cl (configuration not stated)
45 | 106 to 107 | Cc1oc(-c2ccccc2)nc1COc1ccc(Cn2cc(CCC(=O)O)c(OC(C)C)n2)cc1
46 | 134 to 138 | CCOC(=O)c1cc(C(O)CBr)c(=O)[nH]c1C(=O)OCC (configuration not stated)
47 | 112 to 116 | COc1ccccc1C(O)c1cc(Br)cc(Br)c1 (configuration not stated)
48 | 116 to 118 | C[C@H](Cc1cc2c(c(C(N)=O)c1)N(CCCCO)CC2)NCCOc1ccccc1OCC(F)(F)F
49 | 182 to 184 | COc1ccc2cc3ccccc3cc2c1
50 | 41.5 to 43.5 | COc1ccc(Cc2ccc(C#N)cc2)cc1
51 | 124 to 126 | CCCCCCCSC[C@H](N[C@@H](C)C(=O)O)C(=O)OCC
52 | 170 to 176 | CCn1cc(-c2nnnn2C)c(=O)c2ccccc21
53 | > 300 | O=c1c2ccccc2[nH]n2cccc12
54 | 102 to 103 | CC(C)(C)OC(=O)C(Cc1ccc(Cl)cc1)N=C(c1ccccc1)c1ccccc1 (configuration not stated)
55 | 152 to 155 | CCOCc1nc2c(N)nc3ccccc3c2n1NCc1ccccc1
56 | 137 to 138 | Cc1nc(C)c(CC(=O)O)c(-c2ccccc2)c1CC(=O)O

Further lines, the molecule ahead of its results:

Row | Structure (SMILES) | melting point [°C]
57 | Cc1cc(C)c2nc(NC3CCN(CCCO)CC3)n(Cc3nc(C)ccc3O)c2c1 | 172
58 | COc1ccc(COc2coc(COC3CCCCO3)cc2=O)cc1 (configuration not stated) | 95 to 96
59 | Cc1noc(NS(=O)(=O)c2ccccc2-c2ccc(-c3ncco3)cc2CN2C(=O)C(F)(F)c3ccccc32)c1C | 112 to 120
60 | Nc1c(O)cc(Cl)cc1C(=O)C(F)(F)F | 120 to 122
61 | C=C(C)c1ccc(C(C)(C)OOC(C)(C)c2ccccc2)cc1 | 40
62 | CCOC(=O)CCc1ccc2c(c1)nc(N)c1nc(CC)n(CC3CCOCC3)c12 | 172 to 173
63 | Cc1nn(-c2c(Cl)cc(C(F)(F)F)cc2Cl)c(N)c1SC(Cl)(Cl)Cl | 156
64 | Fc1ccc2[nH]c3c(c2c1)CN(CCc1ccccn1)CC3 | 199 to 201
65 | O=c1[nH]c2cc(F)c(O)c([N+](=O)[O-])c2[nH]c1=O | > 360
66 | CC(C)(C)c1cc(SC2(Sc3cc(C(C)(C)C)c(O)c(C(C)(C)C)c3)CCCC2)cc(C(C)(C)C)c1O | 138 to 143
67 | CCCN(CCC)C1Cc2cccc3c2N(CCC3)C1 (configuration not stated) | 112 to 116
68 | CCCc1nc(SSc2nc(CCC)n(-c3ccc([N+](=O)[O-])cc3)n2)nn1-c1ccc([N+](=O)[O-])cc1 | 172
69 | Fc1ccc(-c2cc(C(C(F)(F)F)C(F)(F)F)[nH]c2-c2ccc(F)cc2)cc1 | 123 to 124
70 | CCOc1cc2ncc(C#N)c(Nc3ccc(F)c(Cl)c3)c2cc1OCC | 194 to 198
71 | CCc1cc2oc(=O)c([N+](=O)[O-])c(O)c2cc1CC | 115 to 117
72 | O=C1OC(=O)C2CC(F)(F)CC12 (configuration not stated) | 50
73 | CCN(CC)S(=O)(=O)c1cc(Br)c(N)c(Br)c1 | 186 to 187
74 | O=C1c2c(Cl)cccc2-n2cnc(-c3nnc(CCl)o3)c2[C@@H]2CCN12 | 185 to 189
75 | COc1nsc(S(C)(=O)=O)c1C#N | 167 to 168
76 | Cc1ccc([C@@H]2c3c(C)c(N4CCC(c5ccccc5)CC4)c(C)c(C)c3OC2(C)C)cc1 | 137 to 140
77 | CC(C)(C)c1cc(CN)c(O)c(I)n1 | 162 to 165
78 | CC(C)C1(C)N=C(c2nc3scc([N+](=O)[O-])c3cc2C(=O)O)NC1=O (configuration not stated) | 260
79 | c1ccc(-c2ccc(Nc3nnc(Cc4ccncc4)c4ccccc34)cc2)cc1 | 189 to 191

Row | Structure (SMILES) | melting point [°C]
80 | COc1cc2c(cc1OC)N(c1ccc([N+](=O)[O-])cc1[N+](=O)[O-])CC2 | 219
81 | Cc1ccc2c3c(ccc2n1)OC[C@H](CNCC1CCc2sc4ccc(F)cc4c2C1)O3 (some centres not stated) | 115 to 118
82 | CCOCc1cc2cc(Cl)ccc2oc1=Nc1ccc(Br)cc1 | 119 to 121
83 | COC(=O)c1ccc(C2=NC(C)(C)Cc3cc(OC)c4c(c32)CC(C)(C)O4)cc1N | 161 to 162
84 | COc1cc(OC)c(F)c(N2Cc3cnc(SC)nc3N(C3CCCC3)C2=O)c1F | 167 to 169
85 | [N-]=[N+]=NCCc1ccc(C(N)=O)s1 | 104 to 105
86 | CCOC1=C([N+](=O)[O-])CN(C(C)C)C1=O | 47
87 | COc1ccc(C2=NN(C3CCN(S(=O)(=O)c4ccccc4OC(F)(F)F)CC3)C(=O)C(C)(C)C2)cc1OC | 143 to 144
88 | CC(C)N(CCN1C(=O)C(=O)c2ccc(Cl)cc21)C(C)C | 78 to 79
89 | CC(C)(C)c1cc(SCc2cccc(-c3nnn[nH]3)c2)cc(C(C)(C)C)c1O | 177 to 178
90 | CCOC(=O)C1Cc2cc(OC)c(OC)cc2C1=O (configuration not stated) | 140 to 141
91 | CCOC(=O)CNc1c(C(C)C)cc(C(O)(C(F)(F)F)C(F)(F)F)cc1C(C)C | 72 to 73
92 | CSC(SC)=C(C(O)C(C)(C)C)n1cncn1 (configuration not stated) | 108 to 111
93 | Fc1ccc(-c2nn3c(c2-c2ccncc2)NCCC3)cc1 | 207 to 209
94 | COc1ccc2c(c1)C(N)(CCC#N)C(=O)N2c1ccc(F)cc1 (configuration not stated) | 136 to 138
95 | CS(=O)(=O)c1ccc(/C(=C\C2CCCCC2)C(=O)O)cc1[N+](=O)[O-] | 244 to 247
96 | CCC(c1ccc(Nc2ccccc2)c2ccccc12)c1ccc(Nc2ccccc2)c2ccccc12 | 115
97 | ClCc1cc2cccnc2s1 | 47 to 49
98 | Cc1nc(Cl)c2c(n1)c(C)nn2CC(F)(F)F | 70
99 | O=c1c2nc[nH]c2nc2n1CCN2Cc1ccc(Cl)cc1 | 314 to 316
100 | Nc1ccc(CCNCCCCCCNCCc2ccc(O)c(O)c2)cc1 | > 250
101 | Cc1ccc(C)n1-c1ccc(C(C)C#N)cc1 (configuration not stated) | 79 to 80
102 | CCOC(=O)C1(c2ccccc2)CCN(C2CCC(C#N)(c3ccc(F)cc3C)CC2)CC1 (configuration not stated) | 135
